According to patent US20200157635A1, “DIAGNOSTIC AND THERAPEUTIC METHODS FOR CANCER” (Genentech, Inc., priority 2017, published 2020):

Tested on: patients with NSCLC
Experiment: POPLAR phase II trial: atezolizumab vs docetaxel, efficacy by PD-L1, CXCL9, IFNG expression level
Type: in vivo, human
Method: An RNA-based molecular assay was used to evaluate the association between clinical response to treatment with atezolizumab (MPDL3280A), an anti-PD-L1 antibody, and expression levels of PD-L1, CXCL9, and IFNG in individuals with NSCLC enrolled in a phase II clinical trial in which atezolizumab was administered as a monotherapy.
The POPLAR (Clinical Trial ID No.: NCT01903993) patient population evaluated for PD-L1, CXCL9, and IFNG expression levels consisted of 215 patients. Patients were eligible for enrollment in the POPLAR study if they had locally advanced or metastatic (e.g., stage IIIB, stage IV, or recurrent) NSCLC; disease progression during or following treatment with a prior platinum-containing regimen for locally advanced, unresectable/inoperable, or metastatic NSCLC, or disease recurrence within 6 months of treatment with a platinum-based adjuvant/neoadjuvant regimen; measurable disease, as defined by RECIST v1.1; and an ECOG performance status of 0 or 1. Participants were randomized to receive either atezolizumab at a dose of 1200 mg intravenously every three weeks or docetaxel 75 mg per square meter (mg/m^2) intravenously every three weeks. Treatment with atezolizumab could be continued as long as participants were experiencing clinical benefit, i.e., in the absence of unacceptable toxicity or symptomatic deterioration attributed to disease progression.
To evaluate whether PD-L1, CXCL9, and IFNG gene expression status was associated with patient response to atezolizumab (MPDL3280A) treatment, the gene expression level of PD-L1, CXCL9, and IFNG was assessed in pre-treatment, FFPE tumor samples obtained from each patient. RNA was isolated from the FFPE tumor sections and PD-L1, CXCL9, and IFNG gene expression was measured using PCR-based methodology (Fluidigm). The expression level, expressed as the cycle threshold (Ct) for each of PD-L1, CXCL9, and IFNG was normalized to the expression level of a housekeeping gene (e.g., TMEM55B). The normalized expression value, dCt, where dCt(target gene)=Ct(control gene)−Ct(target gene) for each of PD-L1, CXCL9, and IFNG, was then averaged to obtain a single numerical averaged dCt value for the aggregate expression level of PD-L1, CXCL9, and IFNG.
Tumor specimens obtained from the patients were categorized into different high or low expression level subgroups based on the immune-score expression level of PD-L1, CXCL9, and IFNG relative to a cut-off value for a given percentile (25th, 50th, or 75th percentile) of the population. The 25th percentile was defined by the immune-score expression levels of PD-L1, CXCL9, and IFNG greater than or equal to 25% of all immune-score expression levels of PD-L1, CXCL9, and IFNG in the population analyzed. The 50th percentile was defined by the immune-score expression levels of PD-L1, CXCL9, and IFNG greater than or equal to 50% of all immune-score expression levels of PD-L1, CXCL9, and IFNG in the population analyzed. The 75th percentile was defined by the immune-score expression levels of PD-L1, CXCL9, and IFNG greater than or equal to 75% of all immune-score expression levels of PD-L1, CXCL9, and IFNG in the population analyzed. […]
The OS, PFS, and ORR endpoints from the POPLAR clinical trial were evaluated against the PD-L1, CXCL9, and IFNG expression level cut-offs defined herein (e.g., the 25%, 50%, and 75% expression level quartiles). […]

In the case of `CC(=O)O[C@@]12CO[C@@H]1C[C@H](O)[C@@]1(C)C(=O)[C@H](O)C3=C(C)[C@@H](OC(=O)[C@H](O)[C@@H](NC(=O)OC(C)(C)C)c4ccccc4)C[C@@](O)([C@@H](OC(=O)c4ccccc4)[C@H]21)C3(C)C` [docetaxel], the ORR (BEP (n = 113 vs 112)) is reported as 8%, the ORR (ITT (n = 144 vs 143)) is reported as 15% vs 15% and the ORR (PD-L1, CXCL9, IFNG expression level percentile ≥25%) is reported as 13%. For the same compound, the ORR (PD-L1, CXCL9, IFNG expression level percentile ≥50% (median)) was 15% and the ORR (PD-L1, CXCL9, IFNG expression level percentile ≥75%) was 13%.
